Assays:
[1] = Elimination half life in Sprague-Dawley rat at 0.5 micromol/mL/kg, iv measured for 3 to 360 mins by LC-MS/MS analysis; type: ADME, organism-based; conditions: in vivo, time 3-360 min, dose 0.5 µmol/kg, read-out: LambdaZ (converted)
[2] = Antiviral activity against HCoV-OC43 infected in MRC5 cells assessed as inhibition of viral cytopathic effect measured after 42 hrs by real-time PCR method; type: functional, cell-based, Human coronavirus OC43; conditions: Betacoronavirus 1, OC43, MRC5, 42 h
[3] = molecular target: T1, Chymotrypsin (Homo sapiens, UniProt Q99895+P17538+P40313+Q6GPI1); assay: Inhibition of human pancreas chymotrypsin using Suc-Ala-Ala-Pro-Phe-AMC as substrate preincubated for 15 mins incubated followed by addition of substrate measured after 60 mins by measuring amount of AMC formed by spectrofluorimetric method; type: protein assay
[4] = molecular target: T1, Chymotrypsin; assay: Inhibition of human pancreas chymotrypsin at 100 uM using Suc-Ala-Ala-Pro-Phe-AMC as substrate preincubated for 15 mins incubated followed by addition of substrate measured after 60 mins by measuring amount of AMC formed by spectrofluorimetric method; type: protein assay; conditions: time 75.0 min
[5] = tested on: NIH3T3; assay: Phototoxicity in BALB/c mouse 3T3 fibroblast incubated for 1 hr by measuring neutral-red extraction from cells; type: toxicity, cell-based; conditions: nih3t3, 1 h
[6] = molecular target: Human immunodeficiency virus type 1 protease (Human immunodeficiency virus 1) (UniProt Q72874); assay: Inhibition of HIV-1 protease at 100 uM

| SMILES | half-life [1] | EC50 [2] | IC50 [3] | inhibition [4] | Activity [5] | inhibition [6] |
| --- | --- | --- | --- | --- | --- | --- |
| CNC(=O)Cn1c(=O)[nH]/c(=N\c2ccc(OC(F)F)cc2C)n(Cc2cc(F)c(F)c(F)c2)c1=O | 2.1 h | – | – | – | – | – |
| CNC(=O)Cn1c(=O)[nH]/c(=N\c2cc3cn(C)nc3cc2Cl)n(Cc2cc(F)c(F)c(F)c2)c1=O | 1.3 h | – | – | – | – | – |
| Cn1cnc(Cn2c(=O)[nH]/c(=N\c3cc4cn(C)nc4cc3Cl)n(Cc3cc(F)c(F)cc3F)c2=O)n1 | – | 74 nM | > 100000 nM | < 50% | Non-Toxic | < 50% |

From ChEMBL document CHEMBL5154827, “Discovery of S-217622, a Noncovalent Oral SARS-CoV-2 3CL Protease Inhibitor Clinical Candidate for Treating COVID-19” (J Med Chem, 2022)
